This is an account of results in patent publication US20210323950A1, “HERBICIDALLY ACTIVE BICYCLIC BENZOYLPYRAZOLES” (Bayer Aktiengesellschaft, priority 2018, published 2021).

What all share (assay type): in vivo
Assay [1] relates to Amaranthus retroflexus (AMARE). The assay can be described thus: Pre-emergence herbicidal action against AMARE. Conditions: scored visually after about 3 weeks vs untreated controls. In a few lines: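 Formulated compounds (WP or EC) sprayed onto soil covering sown seeds, with 0.5% additive at […] water (converted). Greenhouse-grown about 3 weeks, then damage scored visually as percent versus untreated controls (100% = dead, 0% = like control).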

For another assay, the system named is Stellaria media (STEME). The assay can be described thus: Pre-emergence herbicidal action against STEME. The following applies: scored visually after about 3 weeks vs untreated controls. The method in brief:
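Weed seeds are sown in pots under soil, and WP or EC formulations are applied pre-emergence to the soil surface as an aqueous suspension or emulsion with 0.5% additive. After about 3 weeks in the greenhouse, effect is scored visually as % versus untreated controls (100% = plants dead, 0% = like control).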

Assay [2] concerns Veronica persica (VERPE). The assay can be described thus: Pre-emergence herbicidal action against VERPE. The following applies: scored visually after about 3 weeks vs untreated controls. In a few lines: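 Weed seeds were sown in pots and covered with soil. Pots were kept in the greenhouse and damage was scored visually after about 3 weeks as percent versus untreated controls (100% = plants died).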

Assay [3] concerns Echinochloa crus-galli (ECHCG). The assay can be described thus: Post-emergence herbicidal action against ECHCG. Conditions: 20 g/ha, post-emergence at one-leaf stage, rated visually after about 3 weeks vs untreated controls. In a few lines:
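Greenhouse plants in sandy loam were sprayed at the one-leaf stage, 2-3 weeks after sowing. Activity was scored visually after about 3 weeks against untreated controls (0% = like control, 100% = dead).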

In assay [4] the test system is Setaria viridis (SETVI). The assay can be described thus: Pre-emergence herbicidal action against SETVI. Conditions: scored visually after about 3 weeks vs untreated controls.
The subject of assay [5] is Setaria viridis (SETVI). The assay can be described thus: Post-emergence herbicidal action against SETVI. The following applies: 20 g/ha, post-emergence at one-leaf stage, rated visually after about 3 weeks vs untreated controls. The method in brief:
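Monocot and dicot weeds grown in sandy loam in greenhouse, sprayed post-emergence at one-leaf stage (2–3 weeks after sowing) with WP or EC formulations in water plus 0.5% additive at […] (converted). Visual rating after about 3 weeks versus untreated controls; 100% = plants dead, 0% = like control.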

In assay [6] the test system is Veronica persica (VERPE). The assay can be described thus: Post-emergence herbicidal action against VERPE. Conditions: 20 g/ha, post-emergence at one-leaf stage, rated visually after about 3 weeks vs untreated controls. As for the experimental part:
VERPE: Veronica persica 2. Post-Emergence Herbicidal Action and Crop Plant Compatibility Seeds of monocotyledonous and dicotyledonous weeds and crop plants are placed in sandy loam in plastic or organic planting pots, covered with soil and cultivated in a greenhouse under controlled growth conditions. 2 to 3 weeks after sowing, the test plants are treated at the one-leaf stage. The compounds of the invention, formulated in the form of wettable powders (WP) or as emulsion concentrates (EC), are then sprayed onto the green parts of the plants as aqueous suspension or emulsion with addition of 0.5% additive at a water application rate of […] (converted). After the test plants had been kept in the greenhouse under optimum growth conditions for about 3 weeks, the activity of the preparations is rated visually in comparison to untreated controls. The tables below show the herbicidal activity of numerous compounds according to the invention against important harmful plants. For example, 100% activity=the plants have died, 0% activity=like control plants.

As to `Cc1nn(C)c(O)c1C(=O)c1ccc(C(F)(F)F)c2c1OCCS2(=O)=O` [Example 1-55], in assay [1] (80 g/ha), the “Pre-emergence action against AMARE” value is 100%. In addition, the “Pre-emergence action against STEME” value in the assay with Stellaria media (STEME) (80 g/ha) worked out at 100%. Also, the “Pre-emergence action against VERPE” value in the assay on Veronica persica (VERPE) [2] (80 g/ha) stood at 90%. The “Post-emergence action against ECHCG” value in assay [3] came to 100%.
In the case of `Cn1ncc(C(=O)c2ccc(C(F)(F)F)c3c2OCCS3)c1O` [Example 1-15], the “Pre-emergence action against SETVI” value with Setaria viridis (SETVI) [4] (80 g/ha) came to 100%. Further, the “Pre-emergence action against AMARE” value in assay [1] (80 g/ha) worked out at 100%. In addition, the “Pre-emergence action against STEME” value in the assay with Stellaria media (STEME) (80 g/ha) is recorded as 100%. In addition, the “Pre-emergence action against VERPE” value in the assay on Veronica persica (VERPE) [2] (80 g/ha) was found to be 90%. Further, in assay [3], the “Post-emergence action against ECHCG” value came out at 80%. In addition, in the assay on Setaria viridis (SETVI) [5], the “Post-emergence action against SETVI” value is 80%.
For the molecule `Cn1ncc(C(=O)c2ccc(C(F)(F)F)c3c2OC[S+]3[O-])c1O` (centres unmarked) [Example 1-28], the “Pre-emergence action against SETVI” value in the assay on Setaria viridis (SETVI) [4] (320 g/ha) turned out to be 100%. In addition, in the assay on Stellaria media (STEME) (320 g/ha), the “Pre-emergence action against STEME” value was 100%. The “Pre-emergence action against VERPE” value with Veronica persica (VERPE) [2] (320 g/ha) was 100%. In addition, in assay [3], the “Post-emergence action against ECHCG” value is recorded as 90%. Further, the “Post-emergence action against SETVI” value in the assay with Setaria viridis (SETVI) [5] is recorded as 90%. The “Post-emergence action against VERPE” value in the assay on Veronica persica (VERPE) [6] was found to be 90%.
Regarding `Cn1ncc(C(=O)c2ccc(C(F)(F)F)c3c2OCS3)c1O` [Example 1-13], the “Pre-emergence action against SETVI” value with Setaria viridis (SETVI) [4] (320 g/ha) came out at 100%. In assay [1] (320 g/ha), the “Pre-emergence action against AMARE” value is recorded as 100%. Moreover, the “Pre-emergence action against STEME” value with Stellaria media (STEME) (320 g/ha) amounted to 100%. In the assay with Veronica persica (VERPE) [2] (320 g/ha), the “Pre-emergence action against VERPE” value worked out at 100%. Further, the “Post-emergence action against ECHCG” value in assay [3] was 90%. Moreover, in the assay on Setaria viridis (SETVI) [5], the “Post-emergence action against SETVI” value came to 100%.
With `Cn1ncc(C(=O)c2ccc(C(F)(F)C(F)(F)F)c3c2OCS3)c1O` [Example 1-128], the “Pre-emergence action against SETVI” value with Setaria viridis (SETVI) [4] (80 g/ha) came to 100%. Besides, the “Pre-emergence action against AMARE” value in assay [1] (80 g/ha) was 100%. Also, the “Pre-emergence action against STEME” value in the assay on Stellaria media (STEME) (80 g/ha) was 100%. For the same molecule, the “Post-emergence action against ECHCG” value in assay [3] was 90%. The “Post-emergence action against SETVI” value with Setaria viridis (SETVI) [5] was determined as 90%.
Consider `CCn1ncc(C(=O)c2ccc(C(F)(F)F)c3c2OCC[S+]3[O-])c1O` (centres unmarked) [Example 1-35], for which the “Pre-emergence action against SETVI” value in the assay with Setaria viridis (SETVI) [4] (80 g/ha) amounted to 100%. In addition, the “Pre-emergence action against AMARE” value in assay [1] (80 g/ha) is 100%. For the same molecule, in the assay on Stellaria media (STEME) (80 g/ha), the “Pre-emergence action against STEME” value is reported as 100%. Moreover, the “Post-emergence action against ECHCG” value in assay [3] came out at 80%. Further, the “Post-emergence action against SETVI” value with Setaria viridis (SETVI) [5] turned out to be 100%.
As for `Cc1nn(C)c(O)c1C(=O)c1ccc(C(F)(F)F)c2c1OCC[S+]2[O-]` (centres unmarked) [Example 1-40], in the assay with Setaria viridis (SETVI) [4] (80 g/ha), the “Pre-emergence action against SETVI” value was determined as 100%. Moreover, in assay [1] (80 g/ha), the “Pre-emergence action against AMARE” value is given as 100%. In addition, in the assay on Stellaria media (STEME) (80 g/ha), the “Pre-emergence action against STEME” value was 100%. In addition, in assay [3], the “Post-emergence action against ECHCG” value amounted to 90%. The “Post-emergence action against SETVI” value in the assay on Setaria viridis (SETVI) [5] was 80%.
Regarding `Cn1ncc(C(=O)c2ccc(C(F)(F)F)c3c2OCC[S+]3[O-])c1O` (centres unmarked) [Example 1-30], the “Pre-emergence action against SETVI” value with Setaria viridis (SETVI) [4] (80 g/ha) came to 100%. For the same molecule, the “Pre-emergence action against AMARE” value in assay [1] (80 g/ha) is reported as 100%. In addition, the “Pre-emergence action against STEME” value in the assay with Stellaria media (STEME) (80 g/ha) amounted to 100%. The “Post-emergence action against ECHCG” value in assay [3] was 100%. In addition, the “Post-emergence action against SETVI” value in the assay with Setaria viridis (SETVI) [5] was 90%.
As to `CCn1ncc(C(=O)c2ccc(C(F)(F)F)c3c2OCCS3(=O)=O)c1O` [Example 1-50], the “Pre-emergence action against SETVI” value in the assay with Setaria viridis (SETVI) [4] (80 g/ha) is 100%. Besides, in assay [1] (80 g/ha), the “Pre-emergence action against AMARE” value stood at 100%. Besides, in the assay on Stellaria media (STEME) (80 g/ha), the “Pre-emergence action against STEME” value was 100%. In addition, the “Pre-emergence action against VERPE” value with Veronica persica (VERPE) [2] (80 g/ha) turned out to be 90%. Further, the “Post-emergence action against ECHCG” value in assay [3] turned out to be 80%. The “Post-emergence action against SETVI” value in the assay on Setaria viridis (SETVI) [5] is 80%.
Turning to `Cn1nc(C2CC2)c(C(=O)c2ccc(C(F)(F)F)c3c2OCC[S+]3[O-])c1O` (centres unmarked) [Example 1-116], the “Pre-emergence action against SETVI” value in the assay with Setaria viridis (SETVI) [4] (80 g/ha) is 100%. Also, the “Pre-emergence action against AMARE” value in assay [1] (80 g/ha) amounted to 100%. Besides, in the assay on Stellaria media (STEME) (80 g/ha), the “Pre-emergence action against STEME” value was 100%. The “Pre-emergence action against VERPE” value in the assay on Veronica persica (VERPE) [2] (80 g/ha) is 80%. Further, in assay [3], the “Post-emergence action against ECHCG” value came out at 100%. Also, the “Post-emergence action against SETVI” value with Setaria viridis (SETVI) [5] is 90%.
For the molecule `Cn1ncc(C(=O)c2ccc(C(F)(F)F)c3c2OCCS3(=O)=O)c1O` [Example 1-45], the “Pre-emergence action against SETVI” value in the assay with Setaria viridis (SETVI) [4] (80 g/ha) was 100%. Besides, the “Pre-emergence action against AMARE” value in assay [1] (80 g/ha) is 100%. The “Pre-emergence action against STEME” value in the assay on Stellaria media (STEME) (80 g/ha) is listed as 100%. The “Pre-emergence action against VERPE” value in the assay on Veronica persica (VERPE) [2] (80 g/ha) came out at 100%. The “Post-emergence action against VERPE” value in the assay with Veronica persica (VERPE) [6] was found to be 90%.
